Test results reported in US20260256751A1, “COMBINATION OF BETA-2-ADRENERGIC RECEPTOR AGONISTS AND GLP-1 RECEPTOR AGONISTS FOR USE IN TREATING HYPERGLYCAEMIA” (ATROGI AB, priority 2023, published 2026).

How the values were obtained:
[1] = test system: differentiated L6-myotubes; assay: Glucose uptake screen (Biological example 1 of WO 2019/053427); format: cell-based; conditions: compound at 10 μM, activity relative to isoproterenol at 10 μM, read-out: Biological example 1 of WO 2019/053427 (GU)
Protocol: (§1) Compounds described in publications referenced and incorporated herein were screened in accordance with the procedures outlined in Biological example 1 and Biological example 2 of WO 2019/053427.
L6-myoblasts were grown in Dulbecco's Modified Eagle's Medium (DMEM) containing 1 g/L glucose supplemented with 10% fetal bovine serum (FBS), 2 mM L-glutamine, 50 U/mL penicillin, […] streptomycin and 10 mM HEPES. Cells were plated at 1x 10^5 cells per mL in 24-well plates. After reaching 90% confluence the cells were grown in medium containing 2% FBS for 7 days where upon cells differentiated into myotubes. The differentiated L6-myotubes were serum-starved overnight in medium containing 0.5% fatty-acid free BSA and stimulated with Compound A at a final concentration of 1×10^−5 M in the presence of the selective β2-adrenergic receptor antagonist ICI-118551. After 1 h 40 min the cells were washed with warm, glucose free medium twice and another portion of agonist was added to the glucose free medium. After another 20 min of incubation the cells were exposed to 50 nM ^3H-2-deoxyglucose for 10 min before washed in ice cold glucose free medium three times and lysed in 400 µl/well 0.2 M NaOH for 1 h at 60° C. The cell lysate was mixed with 4 ml scintillation buffer (Emulsifier Safe, Perkin Elmer) and the radioactivity was detected in a P-counter (Tri-Carb 4810TR, Perkin Elmer).

[2] = test system: differentiated L6-myotubes; assay: cAMP production relative to isoprenaline (Biological example 2 of WO 2019/053427); format: cell-based; conditions: 0.25 h, compound at 10 μM, activity relative to isoproterenol at 10 μM
Source text: For example, the level of cAMP production induced by a given compound can be determined by reference to the amount induced by a defined concentration of that compound relative to that induced by the same concentration of a reference compound, such as isoprenaline, using techniques known to those skilled in the art (e.g. following the protocol as described in the biological examples provided in WO 2019/053427, i.e. in cells, such as differentiated L6-myotubes, having been stimulated with isoprenaline or the compound with a final concentration of 1×10^−5 M, for 15 min in stimulation buffer, such as HBSS supplemented with 1% BSA, 5 mM HEPES and 1 mM IBMX, at pH 7.4).
as §1

For `CCCCNC[C@H](O)c1cnc(N)s1` [Compound 75, (S)-1-(2-amino-1,3-thiazol-5-yl)-2-(butylamino)-1-ethanol], the Emax at 10 µM [1] was 25 to 50% and the Emax at 10 µM [2] was < 25%.

In the case of `CC(C)(C)NC[C@H](O)c1cccc(F)c1F` [Compound 76, (R)-2-(tert-butylamino)-1-(2,3-difluorophenyl)-1-ethanol], the Emax at 10 µM [1] is reported as > 75% and the Emax at 10 µM [2] is reported as 25 to 50%.

With `CCCCNC[C@H](O)c1cccc(F)c1F` [Compound 77, (R)-2-(butylamino)-1-(2,3-difluorophenyl)-1-ethanol] the Emax at 10 µM [1] was > 75% and the Emax at 10 µM [2] was < 25%.

In the case of `CC(C)(C)NC[C@H](O)c1ccccc1F` [Compound 78, (R)-2-(tert-butylamino)-1-(o-fluorophenyl)-1-ethanol], the Emax at 10 µM [1] is reported as > 75% and the Emax at 10 µM [2] is reported as 25 to 50%.

`CCCCNC[C@H](O)c1ccccc1F` [Compound 79, (R)-2-(butylamino)-1-(o-fluorophenyl)-1-ethanol] was tested, and the Emax at 10 µM [1] was > 75% and the Emax at 10 µM [2] was < 25%.

With `CC(C)(C)NC[C@H](O)c1ccc(F)cc1O` [Compound 80, (R)-2-(tert-butylamino)-1-(4-fluoro-2-hydroxyphenyl)-1-ethanol] the Emax at 10 µM [1] was 50 to 75% and the Emax at 10 µM [2] was < 25%.

With `CCCCNC[C@H](O)c1ccc(F)cc1O` [Compound 81, (R)-2-(butylamino)-1-(4-fluoro-2-hydroxyphenyl)-1-ethanol] the Emax at 10 µM [1] was 50 to 75% and the Emax at 10 µM [2] was < 25%.

`CC1(NC[C@H](O)c2cccc(F)c2)CC1` [Compound 82, (R)-1-(m-fluorophenyl)-2-(1-methylcyclopropylamino)-1-ethanol] was tested, and the Emax at 10 µM [1] was > 75% and the Emax at 10 µM [2] was < 25%.

In the case of `CC1(NC[C@H](O)c2cccc(F)c2)CCC1` [Compound 83, (R)-1-(m-fluorophenyl)-2-(1-methylcyclobutylamino)-1-ethanol], the Emax at 10 µM [1] is reported as > 75% and the Emax at 10 µM [2] is reported as 25 to 50%.

With `CC(C)(C)NC[C@H](O)c1ccc(F)c(O)c1` [Compound 84, (R)-2-(tert-butylamino)-1-(4-fluoro-3-hydroxyphenyl)-1-ethanol] the Emax at 10 µM [1] was > 75% and the Emax at 10 µM [2] was 50 to 75%.

In the case of `CCCCNC[C@H](O)c1ccc(F)c(O)c1` [Compound 85, (R)-2-(butylamino)-1-(4-fluoro-3-hydroxyphenyl)-1-ethanol], the Emax at 10 µM [1] is reported as > 75% and the Emax at 10 µM [2] is reported as < 25%.

With `CC(C)(C)NC[C@H](O)c1cccc(O)c1F` [Compound 86, (R)-2-(tert-butylamino)-1-(2-fluoro-3-hydroxyphenyl)-1-ethanol] the Emax at 10 µM [1] was 50 to 75% and the Emax at 10 µM [2] was 50 to 75%.

`CCCCNC[C@H](O)c1cccc(O)c1F` [Compound 87, (R)-2-(butylamino)-1-(2-fluoro-3-hydroxyphenyl)-1-ethanol] was tested, and the Emax at 10 µM [1] was > 75% and the Emax at 10 µM [2] was 25 to 50%.

In the case of `CCCCNC[C@H](O)c1cnc(NC(=O)C(C)C)nc1` [Compound 88, N-{5-[(R)-2-(butylamino)-1-hydroxyethyl]-2-pyrimidinyl}2-methylpropionamide], the Emax at 10 µM [1] is reported as 50 to 75% and the Emax at 10 µM [2] is reported as < 25%.

For `CCCCNC[C@H](O)c1cnc(N)nc1` [Compound 89, (R)-1-(2-amino-5-pyrimidinyl)-2-(butylamino)-1-ethanol], the Emax at 10 µM [1] was 50 to 75% and the Emax at 10 µM [2] was < 25%.

With `CCCCNC[C@H](O)c1cccc(N)c1F` [Compound 90, (R)-1-(3-amino-2-fluorophenyl)-2-(butylamino)-1-ethanol] the Emax at 10 µM [1] was 50 to 75% and the Emax at 10 µM [2] was < 25%.

`CC(C)(C)NC[C@H](O)c1cccc(N)c1F` [Compound 91, (R)-1-(3-amino-2-fluorophenyl)-2-(tert-butylamino)-1-ethanol] was tested, and the Emax at 10 µM [1] was > 75% and the Emax at 10 µM [2] was 25 to 50%.

`CCC[C@H]1CCC[C@H]([C@H](O)c2ccc(F)cc2)N1` [Compound 92, (R)-[(2R,6S)-6-propyl-2-piperidyl](p-fluorophenyl)methanol] was tested, and the Emax at 10 µM [1] was 25 to 50% and the Emax at 10 µM [2] was < 25%.

For `CCC[C@H]1CCC[C@H]([C@H](O)c2ccccc2F)N1` [Compound 93, (R)-[(2R,6S)-6-propyl-2-piperidyl](o-fluorophenyl)methanol], the Emax at 10 µM [1] was 25 to 50% and the Emax at 10 µM [2] was < 25%.

`CCC[C@@H]1CCC[C@H]([C@H](O)c2ccc(F)cc2)N1` [Compound 94, (R)-[(2R,6R)-6-propyl-2-piperidyl](p-fluorophenyl)methanol] was tested, and the Emax at 10 µM [1] was 50 to 75% and the Emax at 10 µM [2] was < 25%.

With `CC(C)(C)NC[C@H](O)c1ccc(O)cn1` [Compound 95, 6-[(S)-2-(tert-butylamino)-1-hydroxyethyl]-3-pyridinol] the Emax at 10 µM [1] was 50 to 75% and the Emax at 10 µM [2] was < 25%.

For `CC(C)(C)NC[C@H](O)c1ccc(F)cn1` [Compound 96, (S)-2-(tert-butylamino)-1-(5-fluoro-2-pyridyl)-1-ethanol], the Emax at 10 µM [1] was 50 to 75% and the Emax at 10 µM [2] was < 25%.

`CCC[C@@H]1CCC[C@H]([C@H](O)c2ccccc2F)N1` [Compound 97, (R)-[(2R,6R)-6-propyl-2-piperidyl](o-fluorophenyl)methanol] was tested, and the Emax at 10 µM [1] was 50 to 75% and the Emax at 10 µM [2] was < 25%.

`Cn1ccc([C@@H](O)CNC(C)(C)C)cc1=O` [Compound 98, 4-[(R)-2-(tert-butylamino)-1-hydroxyethyl]-1-methyl-2(1H)-pyridinone] was tested, and the Emax at 10 µM [1] was > 75% and the Emax at 10 µM [2] was < 25%.

In the case of `CC(C)(C)NC[C@H](O)c1cncc(F)c1` [Compound 99, (R)-2-(tert-butylamino)-1-(5-fluoro-3-pyridyl)-1-ethanol], the Emax at 10 µM [1] is reported as > 75% and the Emax at 10 µM [2] is reported as 25 to 50%.

For `CC(C)(C)NC[C@H](O)c1cncc(O)c1` [Compound 100, 5-[(R)-2-(tert-butylamino)-1-hydroxyethyl]-3-pyridinol], the Emax at 10 µM [1] was > 75% and the Emax at 10 µM [2] was < 25%.

For `CC1(C)CCC[C@H]([C@@H](O)c2cccc(F)c2)N1` [Compound 101, (S)-[(R)-6,6-dimethyl-2-piperidyl](m-fluorophenyl)methanol], the Emax at 10 µM [1] was 25 to 50% and the Emax at 10 µM [2] was < 25%.

For `CC1(C)CCC[C@H]([C@H](O)c2cccc(F)c2)N1` [Compound 102, (R)-[(R)-6,6-dimethyl-2-piperidyl](m-fluorophenyl)methanol], the Emax at 10 µM [1] was 50 to 75% and the Emax at 10 µM [2] was < 25%.

In the case of `CC1(C)CCC[C@H]([C@@H](O)c2cccc(O)c2)N1` [Compound 103, (S)-[(R)-6,6-dimethyl-2-piperidyl](m-hydroxyphenyl)methanol], the Emax at 10 µM [1] is reported as 25 to 50% and the Emax at 10 µM [2] is reported as < 25%.

`CC1(C)CCC[C@H]([C@H](O)c2cccc(O)c2)N1` [Compound 104, (R)-[(R)-6,6-dimethyl-2-piperidyl](m-hydroxyphenyl)methanol] was tested, and the Emax at 10 µM [1] was 25 to 50% and the Emax at 10 µM [2] was < 25%.

`CCC[C@H]1CCC[C@H]([C@@H](O)c2ccc(F)cc2)N1` [Compound 105, (S)-[(2R,6S)-6-propyl-2-piperidyl](p-fluorophenyl)methanol] was tested, and the Emax at 10 µM [1] was 25 to 50% and the Emax at 10 µM [2] was < 25%.

`CCC[C@H]1CCC[C@H]([C@@H](O)c2ccccc2F)N1` [Compound 106, (S)-[(2R,6S)-6-propyl-2-piperidyl](o-fluorophenyl)methanol] was tested, and the Emax at 10 µM [1] was 25 to 50% and the Emax at 10 µM [2] was < 25%.

For `CCC[C@@H]1CCC[C@H]([C@@H](O)c2ccccc2F)N1` [Compound 107, (S)-[(2R,6R)-6-propyl-2-piperidyl](o-fluorophenyl)methanol], the Emax at 10 µM [1] was 25 to 50% and the Emax at 10 µM [2] was < 25%.

In the case of `CC(C)(C)NC[C@H](O)c1ccncc1F` [Compound 108, (R)-2-(tert-butylamino)-1-(3-fluoro-4-pyridyl)-1-ethanol], the Emax at 10 µM [1] is reported as 25 to 50% and the Emax at 10 µM [2] is reported as < 25%.

`CC1(C)CC[C@H]([C@@H](O)c2cccc(F)c2)N1` [Compound 109, (S)-[(R)-5,5-dimethyl-2-pyrrolidinyl](m-fluorophenyl)methanol] was tested, and the Emax at 10 µM [1] was 25 to 50% and the Emax at 10 µM [2] was < 25%.

With `CC1(C)CC[C@H]([C@H](O)c2cccc(F)c2)N1` [Compound 110, (R)-[(R)-5,5-dimethyl-2-pyrrolidinyl](m-fluorophenyl)methanol] the Emax at 10 µM [1] was > 75% and the Emax at 10 µM [2] was < 25%.

For `CC1(C)CC[C@H]([C@@H](O)c2cccc(O)c2)N1` [Compound 111, m-{(S)-[(R)-5,5-dimethyl-2-pyrrolidinyl]hydroxymeth-yl}phenol], the Emax at 10 µM [1] was 50 to 75% and the Emax at 10 µM [2] was < 25%.

In the case of `CC1(C)CC[C@H]([C@H](O)c2cccc(O)c2)N1` [Compound 112, m-{(R)-[(R)-5,5-dimethyl-2-pyrrolidinyl]hydroxymeth-yl}phenol], the Emax at 10 µM [1] is reported as > 75% and the Emax at 10 µM [2] is reported as < 25%.

For `CCC[C@@H]1CCC[C@@H]([C@@H](O)c2cccc(O)c2)N1` [Compound 113, (S)-[(2S,6R)-6-propyl-2-piperidyl](m-hydroxyphenyl)methanol], the Emax at 10 µM [1] was 50 to 75% and the Emax at 10 µM [2] was < 25%.
